Three compounds from ChEMBL document CHEMBL4266047, “First Report of Plant-Derived β-Sitosterol with Antithrombotic, in Vivo Anticoagulant, and Thrombus-Preventing Activities in a Mouse Model” (J Nat Prod, 2018) can be followed below.

For series [1], the system named is Platelet. In words: Antiplatelet activity in human platelet rich plasma up to 10 uM incubated for 5 mins measured after 300 secs. Type of series: functional, cell-based.
The test system of series [2] is Platelet. In words: Antiplatelet activity in human washed platelets up to 10 uM incubated for 5 mins measured after 300 secs. It counts as functional, cell-based.
Series [3] relates to Mus musculus. In words: Anticoagulant activity in Swiss albino mouse assessed as increase in prothrombin time at 50 mg/kg, iv measured after 5 hrs relative to control. It counts as functional.
The test system of series [4] is Mus musculus. Kind of series: Anticoagulant activity in Swiss albino mouse assessed as plasma clotting time at 50 mg/kg, iv measured after 5 hrs (reference value: 175.5 +/- 9.1 sec). Type of series: functional.
The subject of series [5] is Mus musculus. In words: Anticoagulant activity in Swiss albino mouse assessed as increase in activated partial thromboplastin time at 50 mg/kg, iv measured after 5 hrs relative to control. It counts as functional.
Series [6] deals with Mus musculus. Kind of series: Anticoagulant activity in Swiss albino mouse assessed as tail bleeding time at 50 mg/kg, iv measured after 5 hrs (reference value: 45.3 +/- 2.5 sec). It counts as functional.
The subject of series [7] is Mus musculus. In words: Antithrombotic activity in Swiss albino mouse tail thrombosis model assessed as inhibition of k-carrageenan-induced thrombus formation at 50 mg/kg, po administered for one week followed by k-carrageenan challenge 30 mins post last compound dose and measured after 24 hrs. Type of series: functional.
In series [8] the test system is Mus musculus. In words: Antithrombotic activity in Swiss albino mouse tail thrombosis model assessed as inhibition of k-carrageenan-induced thrombus formation at 25 mg/kg, po administered for one week followed by k-carrageenan challenge 30 mins post last compound dose and measured after 72 hrs. Type of series: functional.
The target in series [9] is Coagulation factor X (Homo sapiens) (UniProt P00742). Kind of series: Inhibition of human factor 10a assessed as prothrombin activation using F3301 as substrate.
Series [10] concerns the target T1, Prothrombin (Homo sapiens, UniProt P00734). Kind of series: Inhibition of thrombin in human washed platelets assessed as reduction in thrombin-induced platelet aggregation after 5 mins.
For series [11], the system named is Blood. Kind of series: Thrombolytic activity in goat non-heated blood clot assessed as plasmin activation at 1 uM using V0882 as substrate incubated for 20 mins measured for 15 mins in presence of serine protease inhibitor PMSF. It counts as functional, tissue-based. To be noted: Capra hircus.
Series [12] concerns Heterodera schachtii. In words: Binding affinity to human fibrinogen at 1.25 to 15 uM after 3 mins by fluorescence spectrometric analysis.
For series [13], the system named is Blood. In words: Thrombolytic activity in goat heated blood clot assessed as clot lysed after 3 hrs (reference value: 0.7 +/- 0.2 mg/microM). It counts as functional, Capra hircus.
Series [14] deals with Mus musculus. In words: Defibrinogenation activity in Swiss albino mouse plasma at 50 mg/kg, iv measured after 5 hrs. It counts as functional, organism-based.
The subject of series [15] is Blood. In words: Thrombolytic activity in goat heated blood clot assessed as plasmin activation at 1 uM using V0882 as substrate incubated for 20 mins measured for 15 mins in presence of serine protease inhibitor PMSF. Type of series: functional, tissue-based. To be noted: Capra hircus.
For series [16], the system named is Plasma. Kind of series: Anticoagulant activity in human platelet poor plasma assessed as activated partial thromboplastin time at 10 uM after 3 mins (reference value: 14.2 +/- 1.3 sec). Type of series: functional.
For series [17], the target named is T1, Prothrombin. In words: Binding affinity to human thrombin at 1.25 to 15 uM after 3 mins by fluorescence spectrometric analysis.
For series [18], the system named is Plasma. In words: Anticoagulant activity in human platelet poor plasma assessed as prolongation of calcium clotting time at 2.5 uM. It counts as functional, cell-free. The conditions noted are these: TDE = time-dependent effect.
In series [19] the target is Coagulation factor X (Homo sapiens) (UniProt P00742). In words: Binding affinity to human factor 10a at 1.25 to 15 uM after 3 mins by fluorescence spectrometric analysis.
The test system of series [20] is Mus musculus. Kind of series: Antithrombotic activity in Swiss albino mouse tail thrombosis model assessed as inhibition of k-carrageenan-induced thrombus formation at 50 mg/kg, po administered for one week followed by k-carrageenan challenge 30 mins post last compound dose and measured after 72 hrs. Type of series: functional.
The target in series [21] is T1, Prothrombin. Kind of series: Inhibition of human thrombin at 7.5 uM using T1637 as substrate preincubated for 30 mins followed by heparin addition by SDS-PAGE analysis.
A further series deals with HEK293. In words: Cytotoxicity against HEK293 cells assessed as decrease in cell viability at 50 uM after 24 hrs by MTT assay. Type of series: cell-based. To be noted: human, hek293, 24 h.
The target of series [22] is T1, Prothrombin. In words: Inhibition of human thrombin using T1637 as substrate.
In series [23] the test system is Blood. In words: Thrombolytic activity in goat non-heated blood clot assessed as clot lysed after 3 hrs (reference value: 2.1 +/- 0.3 mg/microM). Type of series: functional, Capra hircus.
Series [24] has as its system Heterodera schachtii. Kind of series: Inhibition of human fibrinogen at 5 uM after 120 mins by SDS-PAGE analysis.
Series [25] has as its system Blood. In words: Thrombolytic activity in goat non-heated blood clot assessed as plasmin activation at 1 uM using V0882 as substrate incubated for 20 mins measured for 15 mins. Type of series: functional, Capra hircus.
The subject of series [26] is Mus musculus. In words: Antithrombotic activity in Swiss albino mouse tail thrombosis model assessed as inhibition of k-carrageenan-induced thrombus formation at 12.5 mg/kg, po administered for one week followed by k-carrageenan challenge 30 mins post last compound dose and measured after 24 hrs. Type of series: functional.
In series [27] the test system is Mus musculus. In words: Antithrombotic activity in Swiss albino mouse tail thrombosis model assessed as inhibition of k-carrageenan-induced thrombus formation at 12.5 mg/kg, po administered for one week followed by k-carrageenan challenge 30 mins post last compound dose and measured after 72 hrs. Type of series: functional.
Series [28] deals with Plasma. In words: Anticoagulant activity in human platelet poor plasma assessed as prolongation of calcium clotting time at 2.5 uM after 3 mins. It counts as functional, cell-free.
In series [29] the target is T1, Prothrombin. In words: Binding affinity to human thrombin by isothermal calorimetric titration method.
A further series has as its system Erythrocyte. Kind of series: Hemolytic activity against human erythrocytes assessed as hemolysis at 2.5 to 50 uM after 90 mins. It counts as ADME, cell-based. The conditions noted are these: 1.5 h.
Series [30] has as its system Mus musculus. In words: Antithrombotic activity in Swiss albino mouse tail thrombosis model assessed as inhibition of k-carrageenan-induced thrombus formation at 12.5 mg/kg, po administered for one week followed by k-carrageenan challenge 30 mins post last compound dose and measured after 48 hrs. It counts as functional.
The target in series [31] is T1, Prothrombin. Kind of series: Uncompetitive inhibition of human thrombin using T1637 as substrate by Michaelis-Menten plot analysis.
Series [32] deals with T1, Prothrombin. In words: Inhibition of thrombin in human platelet rich plasma assessed as reduction in thrombin-induced platelet aggregation after 5 mins.
Series [33] concerns Mus musculus. Kind of series: Antithrombotic activity in Swiss albino mouse tail thrombosis model assessed as inhibition of k-carrageenan-induced thrombus formation at 25 mg/kg, po administered for one week followed by k-carrageenan challenge 30 mins post last compound dose and measured after 48 hrs. Type of series: functional.
In series [34] the test system is Mus musculus. Kind of series: Antithrombotic activity in Swiss albino mouse tail thrombosis model assessed as inhibition of k-carrageenan-induced thrombus formation administered orally for one week followed by k-carrageenan challenge 30 mins post last compound dose and measured after 24 to 72 hrs. It counts as functional, organism-based.
The target in series [35] is T1, Prothrombin. In words: Inhibition of human thrombin assessed as prolongation of fibrinogen clotting time of thrombin.
For series [36], the system named is Blood. Kind of series: Anticoagulant activity in goat whole blood assessed as prolongation of calcium clotting time after 3 mins. It counts as functional, tissue-based. The conditions noted are these: Capra hircus.
Series [37] has as its system Mus musculus. Kind of series: Antithrombotic activity in Swiss albino mouse tail thrombosis model assessed as inhibition of k-carrageenan-induced thrombus formation at 25 mg/kg, po administered for one week followed by k-carrageenan challenge 30 mins post last compound dose and measured after 24 hrs. Type of series: functional.
In series [38] the test system is Plasma. In words: Anticoagulant activity in human platelet poor plasma assessed as prolongation of calcium clotting time after 3 mins. Type of series: functional, cell-free.
For series [39], the system named is Plasma. Kind of series: Anticoagulant activity in human platelet poor plasma assessed as increase in prothrombin time at 1.25 to 15 uM after 3 mins. It counts as functional, cell-free.
The test system of series [40] is Mus musculus. In words: Antithrombotic activity in Swiss albino mouse tail thrombosis model assessed as inhibition of k-carrageenan-induced thrombus formation at 50 mg/kg, po administered for one week followed by k-carrageenan challenge 30 mins post last compound dose and measured after 48 hrs. Type of series: functional.
Series [41] relates to Blood. Kind of series: Thrombolytic activity in goat heated blood clot assessed as plasmin activation at 1 uM using V0882 as substrate incubated for 20 mins measured for 15 mins. Type of series: functional, Capra hircus.

The source made the active and inactive calls. No cut-off for these calls is given here.

Sequence of Coagulation factor X (Homo sapiens) (P00742 41-179 limits assumed): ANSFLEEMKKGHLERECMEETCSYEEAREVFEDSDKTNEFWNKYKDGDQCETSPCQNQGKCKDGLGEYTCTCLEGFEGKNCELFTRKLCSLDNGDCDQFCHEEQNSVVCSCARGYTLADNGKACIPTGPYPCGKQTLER
Sequence of Coagulation factor X (Homo sapiens) (P00742 235-488 limits assumed): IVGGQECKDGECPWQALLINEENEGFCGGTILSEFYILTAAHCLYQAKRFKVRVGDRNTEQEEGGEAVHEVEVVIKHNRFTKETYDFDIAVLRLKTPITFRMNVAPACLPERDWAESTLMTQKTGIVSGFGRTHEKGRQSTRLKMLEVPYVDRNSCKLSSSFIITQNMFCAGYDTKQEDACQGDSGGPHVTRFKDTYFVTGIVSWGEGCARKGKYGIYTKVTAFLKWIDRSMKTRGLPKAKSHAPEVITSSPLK

As to `CC(=O)Oc1ccccc1C(=O)O`, the outcome in the series on Platelet [1] and with Platelet [2] was Active.

In the case of `CC1CNc2c(cccc2S(=O)(=O)N[C@@H](CCCNC(=N)N)C(=O)N2CC[C@@H](C)C[C@@H]2C(=O)O)C1` (some centres not stated) [ARGATROBAN], the “fold change (FC)” value with Mus musculus [3] was 4; in the series with Mus musculus [5], 2.3. The Time with Mus musculus [4] was 238.6 s; with Mus musculus [6] it was 143.5 s.

Take `CC[C@H](CC[C@@H](C)[C@H]1CC[C@H]2[C@@H]3CC=C4C[C@@H](O)CC[C@]4(C)[C@H]3CC[C@]12C)C(C)C` [BETA-SITOSTEROL]: the inhibition in vivo at 50 mg/kg in the series with Mus musculus [7] is 23.4%; in the series with Mus musculus [20] it was 47.3%; in the series with Mus musculus [40], 42.3%. Also, the results for the inhibition in vivo at 25 mg/kg in the series on Mus musculus [8], in the series on Mus musculus [33] and with Mus musculus [37] were 36.5%, 31.3% and 15.2%, respectively. Besides, the inhibition result (in series [9]; in the series on Heterodera schachtii [24]) was “inactive” each time. In addition, the inhibition result on Prothrombin [10], at Prothrombin [22], on Prothrombin [32], in the series with Mus musculus [34] and on Prothrombin [35] was “Dose-dependent effect” each time. Besides, the outcome in the series with Blood [11], in the series with Blood [15], on Prothrombin [17], with Plasma [28] and with Plasma [39] was Active. Also, the outcome (in the series on Heterodera schachtii [12]; with Mus musculus [14]; in series [19]) was inactive. Also, the Activity in the series on Blood [13] is 1 mg/µM; in the series on Plasma [18], “Tde”; with HEK293 it was “Non-Toxic”; with Blood [23] it was 7.7 mg/µM; in the series on Blood [25] it was 15.8 mg/µM; in the series on Erythrocyte, “Non-Toxic”. The Activity entry in the series with Blood [36] is “Dose-dependent effect”; in the series on Plasma [38] it was “Dose-dependent effect”; in the series with Blood [41], 9.2 mg/µM. Further, the APTT with Plasma [16] was 28.2 s. In addition, the “fold change (FC)” value came out at 1.1 in the series on Mus musculus [3] and 1.6 with Mus musculus [5]. The inhibition entry on Prothrombin [21] was “Active”. The Time in the series on Mus musculus [4] was 193.5 s; with Mus musculus [6] it was 61 s. Further, the inhibition in vivo at 12.5 mg/kg worked out at 10.5% in the series on Mus musculus [26], 23.2% with Mus musculus [27] and 14.5% in the series with Mus musculus [30]. In addition, the Ka at Prothrombin [29] was found to be 109 M⁻¹. The affinity at Prothrombin [31], expressed as Ki, was 267 nM.
